Entries after “also recorded” stand apart in the source; their conditions may differ.
Tests used:
cRAF1 = cRAF1 (Homo sapiens, UniProt P04049); assay: Enzymatic activity (IC50) to kinases; format: biochemical; details: read-out: IC50 (Unit: nM) cRAF1
P38a/MAPK14 [1] = target: T1, P38a/MAPK14 (Homo sapiens, UniProt Q16539); assay: Enzymatic activity (IC50) to kinases; format: biochemical; details: read-out: IC50 (Unit: nM) P38a/MAPK14
[2] = system: U937 human leukemic monocyte lymphoma cell line; assay: Antiproliferative activity to U937 human leukemic monocyte lymphoma cell line; format: cell-based
Procedure: (§1) The antiproliferative activity of the compounds of Examples to A375P human melanoma cell line and U937 human leukemic monocyte lymphoma cell line are evaluated and listed in the following Table 1.

RAF1 = RAF1 (Homo sapiens, UniProt P04049); assay: Kinase panel screening; format: biochemical; details: 10 μM concentration
Procedure: (§2) To Compound 10c of Example 23, kinase panel screening was carried out to 32 kinds of kinases in 10 μM concentration and the results are listed in the following Table 2.

LYN = LYN (Homo sapiens, UniProt P07948); assay: Kinase panel screening; format: biochemical; details: 10 μM concentration; read-out: Inhibition Rate (Unit: %) LYN
Procedure: as §2

BTK = BTK (Homo sapiens, UniProt Q06187); assay: Kinase panel screening; format: biochemical; details: 10 μM concentration; read-out: Inhibition Rate (Unit: %) BTK
Procedure: as §2

EGFR = EGFR (Homo sapiens, UniProt P00533); assay: Kinase panel screening; format: biochemical; details: 10 μM concentration; read-out: Inhibition Rate (Unit: %) EGFR
Procedure: as §2

BRAF (V600E) [3] = target: T2, BRAF (V600E) (Homo sapiens, UniProt P15056, V600E); assay: Kinase panel screening; format: biochemical; details: 10 μM concentration
Procedure: as §2

FMS = FMS (Homo sapiens, UniProt P07333); assay: Kinase panel screening; format: biochemical; details: 10 μM concentration; read-out: Inhibition Rate (Unit: %) FMS
Procedure: as §2

c-Src = c-Src (Homo sapiens, UniProt P12931); assay: Kinase panel screening; format: biochemical; details: 10 μM concentration; read-out: Inhibition Rate (Unit: %) c-Src
Procedure: as §2

GSK3b = GSK3b (Homo sapiens, UniProt P49841); assay: Kinase panel screening; format: biochemical; details: 10 μM concentration; read-out: Inhibition Rate (Unit: %) GSK3b
Procedure: as §2

mTOR/FRAP1 = mTOR/FRAP1 (Homo sapiens, UniProt P42345); assay: Kinase panel screening; format: biochemical; details: 10 μM concentration; read-out: Inhibition Rate (Unit: %) mTOR/FRAP1
Procedure: as §2

FAK/PTK2 = FAK/PTK2 (Homo sapiens, UniProt Q05397); assay: Kinase panel screening; format: biochemical; details: 10 μM concentration; read-out: Inhibition Rate (Unit: %) FAK/PTK2
Procedure: as §2

c-Kit = c-Kit (Homo sapiens, UniProt P10721); assay: Kinase panel screening; format: biochemical; details: 10 μM concentration; read-out: Inhibition Rate (Unit: %) c-Kit
Procedure: as §2

Aurora A = Aurora A (Homo sapiens, UniProt O14965); assay: Kinase panel screening; format: biochemical; details: 10 μM concentration; read-out: Inhibition Rate (Unit: %) Aurora A
Procedure: as §2

ERK1 = ERK1 (Homo sapiens, UniProt P27361); assay: Kinase panel screening; format: biochemical; details: 10 μM concentration; read-out: Inhibition Rate (Unit: %) ERK1
Procedure: as §2

P38a/MAPK14 [4] = target: T1, P38a/MAPK14; assay: Kinase panel screening; format: biochemical; details: 10 μM concentration; read-out: Inhibition Rate (Unit: %) P38a/MAPK14
Procedure: as §2

ALK = ALK (Homo sapiens, UniProt Q9UM73); assay: Kinase panel screening; format: biochemical; details: 10 μM concentration; read-out: Inhibition Rate (Unit: %) ALK
Procedure: as §2

IGF1R = IGF1R (Homo sapiens, UniProt P08069); assay: Kinase panel screening; format: biochemical; details: 10 μM concentration; read-out: Inhibition Rate (Unit: %) IGF1R
Procedure: as §2

FLT3 = FLT3 (Homo sapiens, UniProt P36888); assay: Kinase panel screening; format: biochemical; details: 10 μM concentration; read-out: Inhibition Rate (Unit: %) FLT3
Procedure: as §2

MEK1 = MEK1 (Homo sapiens, UniProt Q02750); assay: Kinase panel screening; format: biochemical; details: 10 μM concentration; read-out: Inhibition Rate (Unit: %) MEK1
Procedure: as §2

PLK1 = PLK1 (Homo sapiens, UniProt P53350); assay: Kinase panel screening; format: biochemical; details: 10 μM concentration; read-out: Inhibition Rate (Unit: %) PLK1
Procedure: as §2

JNK3 = JNK3 (Homo sapiens, UniProt P53779); assay: Kinase panel screening; format: biochemical; details: 10 μM concentration; read-out: Inhibition Rate (Unit: %) JNK3
Procedure: as §2

c-MET = c-MET (Homo sapiens, UniProt P08581); assay: Kinase panel screening; format: biochemical; details: 10 μM concentration; read-out: Inhibition Rate (Unit: %) c-MET
Procedure: as §2

CDK1/cyclin B = CDK1/cyclin B (Homo sapiens, UniProt P06493); assay: Kinase panel screening; format: biochemical; details: 10 μM concentration; read-out: Inhibition Rate (Unit: %) CDK1/cyclin B
Procedure: as §2

LCK = LCK (Homo sapiens, UniProt P06239); assay: Kinase panel screening; format: biochemical; details: 10 μM concentration; read-out: Inhibition Rate (Unit: %) LCK
Procedure: as §2

[5] = system: most other kinases except cKit (KIT) and p38a (MAPK14); assay: Kinase panel screening, summary for the other kinases; format: biochemical; details: 10 μM concentration
Procedure: as §2

wild-type BRAF = wild-type BRAF (Homo sapiens, UniProt P15056); assay: Enzymatic activity (IC50) to kinases; format: biochemical; details: read-out: IC50 (Unit: nM) BRAF
BRAF (V600E) [6] = target: T2, BRAF (V600E); assay: Enzymatic activity (IC50) to kinases; format: biochemical; details: read-out: IC50 (Unit: nM) BRAF (V600E)
[7] = system: A375P human melanoma cell line; assay: Antiproliferative activity to A375P human melanoma cell line; format: cell-based
Procedure: as §1

T2 sequence (P15056 whole entry V600E): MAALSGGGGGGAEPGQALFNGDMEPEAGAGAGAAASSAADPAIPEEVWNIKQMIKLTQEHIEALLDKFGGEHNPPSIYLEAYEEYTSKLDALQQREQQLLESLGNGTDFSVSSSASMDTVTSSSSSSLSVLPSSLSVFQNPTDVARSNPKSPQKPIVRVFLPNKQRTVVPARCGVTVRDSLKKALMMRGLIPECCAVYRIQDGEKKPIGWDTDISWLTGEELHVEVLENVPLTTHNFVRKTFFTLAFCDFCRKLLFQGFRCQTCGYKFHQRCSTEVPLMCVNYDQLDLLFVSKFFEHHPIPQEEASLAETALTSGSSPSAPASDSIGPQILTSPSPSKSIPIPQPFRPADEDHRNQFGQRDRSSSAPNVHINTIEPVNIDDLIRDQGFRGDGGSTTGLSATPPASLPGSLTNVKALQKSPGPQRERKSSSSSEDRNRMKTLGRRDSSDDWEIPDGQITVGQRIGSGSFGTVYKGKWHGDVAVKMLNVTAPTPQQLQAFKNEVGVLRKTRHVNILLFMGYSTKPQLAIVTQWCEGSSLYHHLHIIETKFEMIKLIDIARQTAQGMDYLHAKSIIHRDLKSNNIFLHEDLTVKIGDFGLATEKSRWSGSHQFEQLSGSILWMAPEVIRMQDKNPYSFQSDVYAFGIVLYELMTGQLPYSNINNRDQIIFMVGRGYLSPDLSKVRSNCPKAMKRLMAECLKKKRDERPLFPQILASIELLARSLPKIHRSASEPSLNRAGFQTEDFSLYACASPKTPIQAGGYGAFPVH
Chain of RAF1 (P04049 whole entry): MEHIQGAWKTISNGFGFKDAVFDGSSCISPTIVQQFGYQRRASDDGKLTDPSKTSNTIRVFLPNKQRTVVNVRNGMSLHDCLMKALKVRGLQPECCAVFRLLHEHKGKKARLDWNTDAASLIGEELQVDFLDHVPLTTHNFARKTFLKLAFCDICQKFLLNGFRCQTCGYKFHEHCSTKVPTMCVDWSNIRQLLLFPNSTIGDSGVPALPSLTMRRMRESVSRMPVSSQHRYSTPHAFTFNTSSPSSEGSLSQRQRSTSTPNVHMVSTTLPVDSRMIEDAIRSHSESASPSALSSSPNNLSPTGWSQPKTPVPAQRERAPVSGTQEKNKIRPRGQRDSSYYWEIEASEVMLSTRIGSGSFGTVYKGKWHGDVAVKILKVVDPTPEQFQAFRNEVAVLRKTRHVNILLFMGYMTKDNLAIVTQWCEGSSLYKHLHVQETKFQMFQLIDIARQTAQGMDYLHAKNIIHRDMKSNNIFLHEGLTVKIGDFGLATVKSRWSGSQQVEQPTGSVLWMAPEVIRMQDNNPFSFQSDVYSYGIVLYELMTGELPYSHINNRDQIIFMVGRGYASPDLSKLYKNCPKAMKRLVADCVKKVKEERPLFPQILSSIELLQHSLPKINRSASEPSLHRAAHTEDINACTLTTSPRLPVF
T1 sequence (Q16539 whole entry): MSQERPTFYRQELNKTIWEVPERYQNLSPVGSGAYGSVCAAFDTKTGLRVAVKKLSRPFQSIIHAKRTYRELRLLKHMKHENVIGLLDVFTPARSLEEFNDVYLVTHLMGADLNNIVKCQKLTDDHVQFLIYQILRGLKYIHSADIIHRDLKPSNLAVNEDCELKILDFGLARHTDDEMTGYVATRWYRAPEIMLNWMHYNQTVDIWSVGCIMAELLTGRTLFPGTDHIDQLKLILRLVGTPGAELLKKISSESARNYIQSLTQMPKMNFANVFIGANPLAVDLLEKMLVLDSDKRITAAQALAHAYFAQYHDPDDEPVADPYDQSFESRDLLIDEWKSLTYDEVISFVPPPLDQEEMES
Chain of FAK/PTK2 (Q05397 whole entry): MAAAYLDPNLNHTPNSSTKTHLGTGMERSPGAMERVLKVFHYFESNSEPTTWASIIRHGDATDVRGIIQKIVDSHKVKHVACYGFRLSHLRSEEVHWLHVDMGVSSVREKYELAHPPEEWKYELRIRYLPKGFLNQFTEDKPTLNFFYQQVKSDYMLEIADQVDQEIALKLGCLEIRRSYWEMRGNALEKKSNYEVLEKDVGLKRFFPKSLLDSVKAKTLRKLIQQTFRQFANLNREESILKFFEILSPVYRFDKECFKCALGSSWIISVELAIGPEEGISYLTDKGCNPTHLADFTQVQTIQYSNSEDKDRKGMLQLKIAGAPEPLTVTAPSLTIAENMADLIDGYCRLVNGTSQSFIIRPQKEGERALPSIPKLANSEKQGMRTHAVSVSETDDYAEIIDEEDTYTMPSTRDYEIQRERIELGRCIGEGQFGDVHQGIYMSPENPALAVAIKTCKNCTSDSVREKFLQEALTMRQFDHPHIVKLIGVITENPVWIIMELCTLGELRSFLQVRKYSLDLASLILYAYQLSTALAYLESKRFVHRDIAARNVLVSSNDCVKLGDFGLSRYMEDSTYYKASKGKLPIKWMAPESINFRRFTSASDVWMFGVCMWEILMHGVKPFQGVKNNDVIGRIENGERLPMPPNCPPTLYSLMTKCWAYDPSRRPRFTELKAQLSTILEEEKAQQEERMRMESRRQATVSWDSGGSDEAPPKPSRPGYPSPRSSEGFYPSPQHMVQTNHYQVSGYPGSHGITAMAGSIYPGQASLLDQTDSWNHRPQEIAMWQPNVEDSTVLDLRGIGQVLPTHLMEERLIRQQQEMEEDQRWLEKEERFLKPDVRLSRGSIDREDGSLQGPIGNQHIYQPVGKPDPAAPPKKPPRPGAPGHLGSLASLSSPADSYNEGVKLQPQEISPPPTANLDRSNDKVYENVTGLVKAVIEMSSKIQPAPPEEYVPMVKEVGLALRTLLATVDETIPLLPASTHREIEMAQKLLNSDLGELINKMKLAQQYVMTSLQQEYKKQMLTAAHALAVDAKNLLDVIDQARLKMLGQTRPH
Chain of cRAF1 (P04049 whole entry): as the sequence (P04049 whole entry) above
Chain of FMS (P07333 20-972, species assumed): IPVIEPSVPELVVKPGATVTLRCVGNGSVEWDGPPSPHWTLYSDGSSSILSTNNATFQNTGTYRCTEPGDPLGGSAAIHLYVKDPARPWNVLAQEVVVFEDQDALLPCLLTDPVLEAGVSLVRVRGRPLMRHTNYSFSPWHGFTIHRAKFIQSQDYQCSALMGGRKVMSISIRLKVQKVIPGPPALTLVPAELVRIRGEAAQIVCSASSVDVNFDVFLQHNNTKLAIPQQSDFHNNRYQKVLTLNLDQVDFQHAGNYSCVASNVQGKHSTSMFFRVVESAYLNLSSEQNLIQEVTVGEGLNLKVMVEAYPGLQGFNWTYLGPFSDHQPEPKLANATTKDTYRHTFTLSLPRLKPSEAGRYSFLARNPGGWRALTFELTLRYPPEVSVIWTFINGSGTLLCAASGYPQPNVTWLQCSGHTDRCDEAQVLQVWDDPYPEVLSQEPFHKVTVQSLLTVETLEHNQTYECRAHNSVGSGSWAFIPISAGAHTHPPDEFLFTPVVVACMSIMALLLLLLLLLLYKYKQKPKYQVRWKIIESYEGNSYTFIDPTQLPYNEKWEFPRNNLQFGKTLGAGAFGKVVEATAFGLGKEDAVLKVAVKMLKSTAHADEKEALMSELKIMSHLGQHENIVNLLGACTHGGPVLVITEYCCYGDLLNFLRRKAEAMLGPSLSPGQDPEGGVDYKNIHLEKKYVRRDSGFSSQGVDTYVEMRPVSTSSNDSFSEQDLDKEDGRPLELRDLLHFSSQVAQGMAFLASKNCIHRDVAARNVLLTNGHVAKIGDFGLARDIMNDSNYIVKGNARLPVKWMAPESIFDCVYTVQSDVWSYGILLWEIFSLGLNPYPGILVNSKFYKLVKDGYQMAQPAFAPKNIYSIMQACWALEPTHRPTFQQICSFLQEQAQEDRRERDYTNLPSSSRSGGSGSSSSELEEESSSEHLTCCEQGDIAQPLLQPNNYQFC
Chain of Aurora A (O14965 whole entry): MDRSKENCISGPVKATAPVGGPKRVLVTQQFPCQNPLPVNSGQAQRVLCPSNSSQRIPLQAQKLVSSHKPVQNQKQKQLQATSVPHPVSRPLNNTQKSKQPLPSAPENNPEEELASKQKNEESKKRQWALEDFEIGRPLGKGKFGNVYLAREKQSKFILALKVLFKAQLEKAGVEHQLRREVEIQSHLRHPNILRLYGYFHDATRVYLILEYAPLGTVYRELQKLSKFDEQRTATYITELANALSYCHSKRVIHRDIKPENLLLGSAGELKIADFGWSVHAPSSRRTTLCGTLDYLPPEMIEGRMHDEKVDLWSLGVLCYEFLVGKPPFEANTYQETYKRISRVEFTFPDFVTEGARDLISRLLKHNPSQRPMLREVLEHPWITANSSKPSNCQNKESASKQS
Chain of wild-type BRAF (P15056 whole entry): as the sequence (P15056 whole entry V600E) above, with E600V counted along it

C[C@H](O)CNc1nccc(-n2ccnc2Cc2cccc(NC(=O)Nc3ccc(C(F)(F)F)c(Cl)c3)c2)n1 [Example 23, (S)-1-(3-chloro-4-(trifluoromethyl)phenyl)-3-(3-((1-(2-((2-hydroxypropyl)amino)pyrimidin-4-yl)-1H-imidazol-2-yl)methyl)phenyl)urea]
IC50 (cRAF1): 8.79 nM
IC50 (P38a/MAPK14 [1]): 571 nM
potency against U937, in words ([2]; U937 cell line, comparison with Sorafenib): large potencies; also recorded: better potencies than Sorafenib
GI50 ([2]; U-937, U937 human leukemic monocyte lymphoma cell line, read-out: U937 (GI50, Unit: μM)): 2.73 µM
Inhibition Rate (Unit: %) RAF1 (RAF1; 10 µM): 98.7%
inhibition at 10 µM (RAF1; read-out: Inhibition Rate (Unit: %) RAF1): 99%
inhibition at 10 µM (LYN): 8.1%
inhibition at 10 µM (BTK): 0%
inhibition at 10 µM (EGFR): 0%
Inhibition Rate (Unit: %) BRAF (V600E) (BRAF (V600E) [3]; 10 µM): 96.1%
inhibition at 10 µM (BRAF (V600E) [3]; read-out: Inhibition Rate (Unit: %) BRAF (V600E)): 99%
inhibition at 10 µM (FMS): 33.6%
inhibition at 10 µM (c-Src): 2.1%
inhibition at 10 µM (GSK3b): 34.5%
inhibition at 10 µM (mTOR/FRAP1): 0%
inhibition at 10 µM (FAK/PTK2): 1.2%
inhibition at 10 µM (c-Kit): 63.8%
inhibition at 10 µM (Aurora A): 17.6%
inhibition at 10 µM (ERK1): 0%
inhibition at 10 µM (P38a/MAPK14 [4]): 94.3%
inhibition at 10 µM (ALK): 4.9%
inhibition at 10 µM (IGF1R): 0%
inhibition at 10 µM (FLT3): 68.4%
inhibition at 10 µM (MEK1): 0%
inhibition at 10 µM (PLK1): 9.9%
inhibition at 10 µM (JNK3): 0%
inhibition at 10 µM (c-MET): 17.6%
inhibition at 10 µM (CDK1/cyclin B): 34.8%
inhibition at 10 µM (LCK): 5.8%
inhibition rate to most other kinases [5]: less than 30%
IC50 (wild-type BRAF): 186 nM
IC50 (BRAF (V600E) [6]): 38.3 nM
potency against A375P, in words ([7]; A375P cell line, comparison with Sorafenib): large potencies; also recorded: better potencies than Sorafenib
GI50 ([7]; A375P human melanoma cell line, read-out: A375P (GI50, Unit: μM)): 1.82 µM

Reference: patent US9540348B2, “Imidazole-1-yl pyrimidine derivatives, or pharmacutically acceptable salt thereof, and pharmaceutic composition comprising the same as an active ingredient” (Industry-University Cooperation Foundation Hanyang …, priority 2015, dated 2017)
